Measurements: patent US20220106271A1, “2-BROMO-6-ALKOXYPHENYL-SUBSTITUTED PYRROLIN-2-ONES AND THEIR USE AS HERBICIDES” (Bayer Aktiengesellschaft, priority 2018, published 2022)

Tests used:
Assay type in all cases: in vivo
Lolium rigidum [1] = assay: Post-emergence herbicidal effect, greenhouse pot test; details: 80 g/ha, post-emergence at one-leaf stage, assessed visually after about 3 weeks; 100% = plants have died, 0% = like control plants
Experimental: (§1) Seeds of monocotyledonous and dicotyledonous weed and crop plants are laid out in sandy loam soil in wood-fibre pots, covered with soil and cultivated in a greenhouse under good growth conditions. 2 to 3 weeks after sowing, the test plants are treated at the one-leaf stage. The compounds of the invention, formulated in the form of wettable powders (WP) or as emulsion concentrates (EC), are then sprayed onto the green parts of the plants as aqueous suspension or emulsion at a water application rate equating to 600 to 800 L/ha with addition of 0.2% wetting agent. After the test plants have been left to stand in the greenhouse under optimal growth conditions for about 3 weeks, the action of the preparations is assessed visually in comparison to untreated controls (herbicidal action in percent (%): 100% activity=the plants have died, 0% activity=like control plants).

Setaria viridis [2] = assay: as above; details: 80 g/ha, post-emergence at one-leaf stage, assessed visually after about 3 weeks; 100% = plants have died, 0% = like control plants
Experimental: as §1

Avena fatua [3] = assay: as above; details: 80 g/ha, post-emergence at one-leaf stage, assessed visually after about 3 weeks; 100% = plants have died, 0% = like control plants
Experimental: as §1

Alopecurus myosuroides [4] = assay: as above; details: 80 g/ha, post-emergence at one-leaf stage, assessed visually after about 3 weeks; 100% = plants have died, 0% = like control plants
Experimental: as §1

Hordeum murinum [5] = assay: as above; details: 80 g/ha, post-emergence at one-leaf stage, assessed visually after about 3 weeks; 100% = plants have died, 0% = like control plants
Experimental: as §1

Echinochloa crus-galli [6] = assay: as above; details: 80 g/ha, post-emergence at one-leaf stage, assessed visually after about 3 weeks; 100% = plants have died, 0% = like control plants
Experimental: as §1

Lolium rigidum [7] = assay: Pre-emergence herbicidal effect, greenhouse pot test; details: 320 g/ha, scored visually after 3 weeks, 100% = plants have died, 0% = like control plants
Excerpt: (§2) 1. Pre-emergence herbicidal effect and crop plant compatibility Seeds of monocotyledonous and dicotyledonous weed plants and crop plants are laid out in sandy loam soil in wood-fibre pots and covered with soil. The compounds of the invention, formulated in the form of wettable powders (WP) or as emulsion concentrates (EC), are then applied to the surface of the covering soil as aqueous suspension or emulsion at a water application rate equating to 600 to 800 L/ha with addition of 0.2% wetting agent.
(§3) After the treatment, the pots are placed in a greenhouse and kept under good growth conditions for the trial plants. The damage to the test plants is scored visually after a test period of 3 weeks by comparison with untreated controls (herbicidal activity in percent (%): 100% activity=the plants have died, 0% activity=like control plants).

Veronica persica = assay: as above; details: scored visually after 3 weeks, dosage 320 g/ha printed only in the upper half of Table 2
Excerpt: as §2, §3

Abutylon threophrasti = assay: as above; details: scored visually after 3 weeks, dosage 320 g/ha printed only in the upper half of Table 2
Excerpt: as §2, §3

Setaria viridis [8] = assay: as above; details: 320 g/ha, scored visually after 3 weeks, 100% = plants have died, 0% = like control plants
Excerpt: as §2, §3

Avena fatua [9] = assay: as above; details: 320 g/ha, scored visually after 3 weeks, 100% = plants have died, 0% = like control plants
Excerpt: as §2, §3

Alopecurus myosuroides [10] = assay: as above; details: 320 g/ha, scored visually after 3 weeks, 100% = plants have died, 0% = like control plants
Excerpt: as §2, §3

Stellaria media = assay: as above; details: scored visually after 3 weeks, dosage 320 g/ha printed only in the upper half of Table 2
Excerpt: as §2, §3

Cyperus esculentus = assay: as above; details: 320 g/ha, scored visually after 3 weeks, 100% = plants have died, 0% = like control plants
Excerpt: as §2, §3

Viola tricolor = assay: as above; details: scored visually after 3 weeks, dosage 320 g/ha printed only in the upper half of Table 2
Excerpt: as §2, §3

Hordeum murinum [11] = assay: as above; details: scored visually after 3 weeks, dosage 320 g/ha printed only in the upper half of Table 2
Excerpt: as §2, §3

Amaranthus retroflexus = assay: as above; details: scored visually after 3 weeks, dosage 320 g/ha printed only in the upper half of Table 2
Excerpt: as §2, §3

Echinochloa crus-galli [12] = assay: as above; details: 320 g/ha, scored visually after 3 weeks, 100% = plants have died, 0% = like control plants
Excerpt: as §2, §3

Polygonum convolvulus = assay: as above; details: scored visually after 3 weeks, dosage 320 g/ha printed only in the upper half of Table 2
Excerpt: as §2, §3

Compound | Post-emergence action LOLRI (herbicidal action in percent) (Lolium rigidum [1]) | Post-emergence action SETVI (herbicidal action in percent) (Setaria viridis [2]) | Post-emergence action AVEFA (herbicidal action in percent) (Avena fatua [3]) | Post-emergence action ALOMY (herbicidal action in percent) (Alopecurus myosuroides [4]) | Post-emergence action HORMU (herbicidal action in percent) (Hordeum murinum [5]) | Post-emergence action ECHCG (herbicidal action in percent) (Echinochloa crus-galli [6]) | Pre-emergence action LOLRI (herbicidal activity in percent) (Lolium rigidum [7]) | Pre-emergence action VERPE (herbicidal activity in percent) (Veronica persica) | Pre-emergence action ABUTH (herbicidal activity in percent) (Abutylon threophrasti) | Pre-emergence action SETVI (herbicidal activity in percent) (Setaria viridis [8]) | Pre-emergence action AVEFA (herbicidal activity in percent) (Avena fatua [9]) | Pre-emergence action ALOMY (herbicidal activity in percent) (Alopecurus myosuroides [10]) | Pre-emergence action STEME (herbicidal activity in percent) (Stellaria media) | Pre-emergence action CYPES (herbicidal activity in percent) (Cyperus esculentus) | Pre-emergence action VIOTR (herbicidal activity in percent) (Viola tricolor) | Pre-emergence action HORMU (herbicidal activity in percent) (Hordeum murinum [11]) | Pre-emergence action AMARE (herbicidal activity in percent) (Amaranthus retroflexus) | Pre-emergence action ECHCG (herbicidal activity in percent) (Echinochloa crus-galli [12]) | Pre-emergence action POLCO (herbicidal activity in percent) (Polygonum convolvulus)
CC#Cc1cc(Br)c(C2=C(OC(=O)C(C)C)C3(CCC(OC)CC3)NC2=O)c(OC)c1 (stereo not drawn) [Example 1.4] | 100% | 90% | 90% | 90% | 100% | 90% | 100% | 100% | 100% | 100% | 100% | 100% | 100% | 100% | 100% | 100% | 100% | 100% | 100%
CC#Cc1cc(Br)c(C2=C(O)C3(CCC(OC)CC3)NC2=O)c(OC)c1 (single isomer, unassigned) [Example 1.2] | 90% | 90% | 90% | 90% | 100% | 100% | 100% | 100% | 100% | 100% | 100% | 100% | 100% | 100% | 100% | 100% | 100% | 100% | 100%
CC#Cc1cc(Br)c(C2=C(O)C3(CCC(OC)CC3)NC2=O)c(OC)c1 (single isomer, unassigned) [Example 1.1, 3-[2-Bromo-6-methoxy-4-(prop-1-yn-1-yl)phenyl]-4-hydroxy-8-methoxy-1-azaspiro[4.5]dec-3-en-2-one] | 100% | 90% | 100% | 90% | 100% | 100% | 100% | 100% | 100% | 100% |  | 100% | 100% | 100% | 100% | 100% | 100% | 100% | 100%
CC#Cc1cc(Br)c(C2=C(OC(=O)OCC)C3(CCC(OC)CC3)NC2=O)c(OC)c1 (stereo not drawn) [Example 1.3, 3-[2-Bromo-6-methoxy-4-(prop-1-yn-1-yl)phenyl]-8-methoxy-2-oxo-1-azaspiro[4.5]dec-3-en-4-yl ethyl carbonate] | 100% | 90% | 90% | 90% | 100% | 100% | 100% | 100% | 100% | 100% | 100% | 100% | 100% | 100% | 100% | 100% | 100% | 100% | 100%
